Where only a bound is given, the exact number is not on record here.

Assay [1] concerns the target T1, SMYD3 (Homo sapiens (Human), UniProt Q9H7B4). Briefly: SMYD3 cell assay (Trimethyl-MEKK2 In-Cell Western in 293T/17 cells). The class given is cell-based. To be noted: 293T/17 cells transfected with MEKK2-flag and SMYD3, trimethyl-MEKK2 In-Cell Western, 24 hours, top concentration 40 μM; average of n = 1 to n = 50. From the text: Trimethyl-MEKK2-In-Cell Western Assay
293T/17 adherent cells were purchased from ATCC (American Type Culture Collection), Manassas, Va., USA. MEM/Glutamax medium, Optimem Reduced Serum medium, penicillin-streptomycin, 0.05% trypsin and 1×D-PBS were purchased from Life Technologies, Grand Island, N.Y., USA. PBS-10× was purchased from Ambion, Life Technologies, Grand Island, N.Y., USA. PBS with Tween 20 (PBST (10×)) was purchased from KPL, Gaithersburg, Md., USA. Tet System FBS-approved FBS US Source was purchased from Clontech, Mountain View, Calif., USA. Odyssey blocking buffer, 800 CW goat anti-rabbit IgG (H+L) antibody, 680 CW Goat anti-mouse IgG (H+L) and Licor Odyssey infrared scanner were purchased from Licor Biosciences, Lincoln, Nebr., USA. Tri-methyl-Lysine [A260]-MEKK2 antibody, MEKK2 and SMYD3 plasmids were made at Epizyme. Anti-flag monoclonal mouse antibody was purchased from Sigma, St. Louis, Mo., USA. Methanol was purchased from VWR, Franklin, Mass., USA. 10%) Tween 20 was purchased from KPL, Inc., Gaithersburg, Md., USA. Fugene was purchased from Promega, Madison, Wis., USA. The Biotek ELx405 was purchased from BioTek, Winooski, Vt., USA. The multidrop combi was purchased from Thermo Scientific, Waltham, Mass., USA.
293T/17 adherent cells were maintained in growth medium (MEM/Glutamax medium supplemented with 10% v/v Tet System FBS and cultured at 37° C. under 5% CO2.
Cell Treatment, In Cell Western (ICW) for Detection of Trimethyl-Lysine-MEKK2 and MEKK2
293T/17 cells were seeded in assay medium at a concentration of 33,333 cells per cm^2 in 30 mL medium per T150 flask and incubated at 37° C. under 5% CO2. Plasmids were prepared for delivery to cells by first mixing 1350 μL Opti-MEM with Fugene (81 μL) in a sterile Eppendorf and incubated for five minutes at room temperature (RT). MEKK2-flag (13.6 ug/T150) MEKK2 p3XFlag-CMV-14 with C-3XFlag and SMYD3 (0.151 ug/T150) SMYD3 p3XFlag-CMV-14 without C-3XFlag plasmids were aliquotted to a 1.7 mL sterile microfuge tube. The gene ID for MEKK2 and SMYD3 is NM_006609.3 and Q9H7B4, respectively. Entire volume of Opti-MEM/Fugene mixture was then added to a microfuge tube containing DNA plasmid, mixed and then incubated××15 minutes at RT. The medium on the 293T/17 cells was refreshed, and the DNA/Fugene complex is added aseptically to each flask, rocked gently, and incubated at 37 C for 5 hours. Medium was then removed, and cells were washed once with PBS in the flask. Trypsin 0.05% (3 mL) was added and cells incubated for three minutes. Room temperature MEM+10% Tet system FBS was added and cells were mixed gently, and counted using the Vi-cell. Cells were seeded at 100,000 cells/mL in 50 μL MEM/10% Tet FBS/Pen/Strep to a 384 well black/clear poly-D-lysine coated plate containing test agent diluted in DMSO. The final top concentration of test compound was 40 μM. […] Plates were incubated ×30 minutes at RT in low-airflow area, followed by incubation at 37° C. under 5% CO2 for 24 hours. Medium was aspirated from all wells of assay plates prior to fixation and permeabilization with ice cold (−20° C.) methanol (90 μL/well) for ten minutes. Plates were rinsed with PBS three times on BioTek ELx405. PBS was removed with a final aspiration, and Odyssey blocking buffer (50 μL/well) was added to each well and incubated for one hour at RT. Primary antibody solution was prepared (anti-trimethyl-MEKK2 at 1:600 dilution plus mouse anti-flag antibody at 1:10,000 dilution in diluent (Odyssey Blocking buffer+0.1% Tween 20)) and 20 μL per well was dispensed using the Multidrop Combi. Assay plates were then sealed with foil, and incubated overnight at 4° C. Plates were washed five times with PBS-Tween (IX) on Biotek ELx405 and blotted on paper towel to remove excess reagent. […]

For assay [2], the target named is T1, SMYD3. Briefly: SMYD3 biochemical assay (SMYD3 enzyme assay on MEKK2 protein substrate, scintillation proximity assay). To be noted: 3H-SAM, SPA, IC50 values are an average of n = 1 to n = 50, read-out: SMYD3 Biochem IC50. From the text: S-adenosylmethionine (SAM), S-adenosylhomocysteine (SAH), Tris, Tween20, dimethylsulfoxide (DMSO), bovine skin gelatin (BSG), and Tris(2-carboxyethyl)phosphine hydrochloride solution (TCEP) were purchased from Sigma-Aldrich at the highest level of purity possible. ^3H-SAM was purchase from American Radiolabeled Chemicals with a specific activity of 80 Ci/mmol. 384-well opaque white OptiPlates and SPA beads (Perkin Elmer, catalog # RPNQ0013) were purchased from PerkinElmer.
N-terminally GST-tagged MEKK2 (MAP3K2) protein corresponding to reference sequence AAF63496.3 was purchased from Life Technologies (catalog # PV4010). […] Protein identity was confirmed by MS/MS analysis after proteolytic digestion. The protein sequence used was:
Full-length human SMYD3 isoform 1 (BAB86333) was inserted into a modified pET21b plasmid containing a His6 tag and TEV and SUMO cleavage sites. Because two common variants of SMYD3 exist in the population, site directed mutagenesis was subsequently performed to change amino acid 13 from an asparagine to a lysine, resulting in plasmid pEPZ533.
E. coli (BL21 codonplus RIL strain, Stratagene) were transformed with plasmid pEPZ553 by mixing competent cells and plasmid DNA and incubating on ice for 30minutes followed by heat shock at 42° C. for 1 minute and cooling on ice for 2 minutes. Transformed cells were grown and selected on LB agar with 100 μg/mL ampicillin and 17 μg/mL chloramphenicol at 37° C. overnight. A single clone was used to inoculate 200 mL of LB medium with 100 μg/mL ampicillin and 17 μg/mL chloramphenicol and incubated at 37° C. on an orbital shaker at 180 rpm. Once in log growth, the culture was diluted 1:100 into 2 L of LB medium and grown until OD600 was about 0.3 after which the culture was incubated at 15° C. and 160 rpm. Once OD600 reached about 0.4, IPTG was added to a final concentration of 0.1 mM and the cells were grown overnight at 15° C. and 160 rpm. Cells were harvested by centrifugation at 8000 rpm, for 4 minutes at 4° C. and stored at −80° C. for purification.
The column was washed with Buffer B (Buffer A plus 20 mM imidazole) and His-tagged SMYD3 was eluted with Buffer C (Buffer A plus 300 mM imidazole). The His tag, TEV and SUMO cleavage sites were removed generating native SMYD3 by addition of ULP1 protein at a ratio of 1:200 (ULP1:SMYD3). Imidazole was removed by dialysis overnight in Buffer A. The dialyzed solution was applied to a second Nickel column and the native SMYD3 protein was collected from the column flow-through. The flow-through was dialyzed in Buffer D (25 mM Tris, 5% glycerol, 5 mM β-mercaptoethanol, 50 mM NaCl, pH7.8) and ULP1 was removed using a Q sepharose fast flow column.
General Procedure for SMYD3 Enzyme Assays on MEKK2 Protein Substrate
The assays were all performed in a buffer consisting of 25 mM Tris-Cl pH 8.0, 1 mM TCEP, 0.005% BSG, and 0.005% Tween 20, prepared on the day of use. Compounds in 100% DMSO (1 ul) were spotted into a 384-well white opaque OptiPlate using a Bravo automated liquid handling platform outfitted with a 384-channel head (Agilent Technologies). DMSO (1 ul) was added to Columns 11, 12, 23, 24, rows A-H for the maximum signal control and 1 ul of SAH, a known product and inhibitor of SMYD3, was added to columns 11, 12, 23, 24, rows I-P for the minimum signal control. A cocktail (40 ul) containing the SMYD3 enzyme was added by Multidrop Combi (Thermo-Fisher). The compounds were allowed to incubate with SMYD3 for 30 min at room temperature, then a cocktail (10 ul) containing SAM and MEKK2 was added to initiate the reaction (final volume=51 ul).
Background: SPA uses beads or plates that emit light when radiolabelled molecules are held near them.

T1 sequence (Q9H7B4 whole entry): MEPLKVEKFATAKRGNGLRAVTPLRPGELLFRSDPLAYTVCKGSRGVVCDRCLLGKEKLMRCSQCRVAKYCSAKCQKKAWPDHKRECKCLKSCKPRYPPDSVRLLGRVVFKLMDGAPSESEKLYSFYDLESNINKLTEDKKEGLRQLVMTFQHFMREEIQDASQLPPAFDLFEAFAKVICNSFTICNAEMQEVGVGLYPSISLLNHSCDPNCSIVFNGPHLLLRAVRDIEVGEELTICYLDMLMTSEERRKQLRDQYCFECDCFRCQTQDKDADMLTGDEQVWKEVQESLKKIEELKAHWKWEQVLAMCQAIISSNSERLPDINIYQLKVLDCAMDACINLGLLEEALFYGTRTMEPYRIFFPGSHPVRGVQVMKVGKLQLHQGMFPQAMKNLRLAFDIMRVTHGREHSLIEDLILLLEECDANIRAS

Turning to `C[C@@H](N)CC(=O)N[C@H]1CC[C@H](NC(=O)c2cc(C3CC3)on2)[C@H](Cc2ccccc2)C1` (mixture of isomers) [Cpd. No. 39, Mixture of N-((1S,2R,4S)-4-((R)-3-aminobutanamido)-2-benzylcyclohexyl)-5-cyclopropylisoxazole-3-carboxamide and N-((1R,2S,4R)-4-((R)-3-aminobutanamido)-2-benzylcyclohexyl)-5-cyclopropylisoxazole-3-carboxamide; (1S,2R,4S) isomer is depicted.], the concentration for half-maximal inhibition (IC50) in assay [1] was 255 nM; in assay [2], 28.6 nM.
The like results for `N[C@H]1CC[C@H](C(=O)N[C@H]2CC[C@H](NC(=O)c3cc(C4CC4)on3)CC2)C1` [compound 32, N-((1S,4r)-4-((1S,3S)-3-aminocyclopentane-1-carboxamido)cyclohexyl)-5-cyclopropylisoxazole-3-carboxamide] were, in that order, 5150 nM and 562 nM.
The like results for `NCCCN(C(=O)CCN)[C@H]1CC[C@H](NC(=O)c2cc(C3CC3)on2)CC1` [compound 33, N-((1r,4r)-4-(3-amino-N-(3-aminopropyl)propanamido)cyclohexyl)-5-cyclopropylisoxazole-3-carboxamide] were, in that order, over 40000 nM and 428 nM.
Turning to `O=C(CCN1CCCC1)N[C@H]1CC[C@H](NC(=O)c2cc(C3CC3)on2)CC1` [compound 11, 5-cyclopropyl-N-((1r,4r)-4-(3-(pyrrolidin-1-yl)propanamido)cyclohexyl)isoxazole-3-carboxamide], the results for the IC50 in assay [1] and in assay [2] were 1970 nM and 188 nM, respectively.
As for `C[C@@H](N)CC(=O)N[C@H]1CC[C@H](NC(=O)c2cc(C3CC3)on2)CC1` [compound 5, N-((1R,4r)-4-((R)-3-aminobutanamido)cyclohexyl)-5-cyclopropylisoxazole-3-carboxamide], the IC50 in assay [1] worked out at 10100 nM; in assay [2], 400 nM.
`CCc1cc(C(=O)N[C@H]2CC[C@H](NC(=O)C[C@@H](C)N)C[C@H]2CC)no1` (mixture of isomers) [Cpd. No. 6, Mixture of N-((1S,2R,4S)-4-((R)-3-aminobutanamido)-2-ethylcyclohexyl)-5-ethylisoxazole-3-carboxamide and N-((1R,2S,4R)-4-((R)-3-aminobutanamido)-2-ethylcyclohexyl)-5-ethyl-isoxazole-3-carboxamide; (1S,2R,4S) isomer is depicted]: the half-inhibitory concentration (IC50) is 964 nM in assay [1] and 97.3 nM in assay [2].

The term IC50 denotes the concentration needed to halve the response being measured.

For the origin of these results see patent US10106510B2, “Substituted isoxazoles for treating cancer” (EPIZYME, INC., priority 2014, dated 2018).
